Test results: patent US11351224B2, “Pharmaceutical composition for preventing and treating transplant rejection” (IUCF-HYU (INDUSTRY-UNIVERSITY COOPERATION FOUNDATION …, priority 2015, dated 2022)

Legend:
[1] = tested on: spleen cells activated by anti-CD3 and anti-CD28 antibodies; experiment: IL-2 expression inhibition in spleen cells activated by anti-CD3 and anti-CD28 antibodies (ELISA); format: cell-based, mouse; conditions: for IL-2 expression inhibitory efficiency compared to WT: 0.5, 1, 2 or 5 μM
Protocol: The spleen cells activated by anti-CD3 and anti-CD28 antibodies were treated with 1 μM of each of PBS, the dNP2-ctCTLA-4 fusion product and the TAT-ctCTLA-4 fusion product, and IL-2 expression inhibitory efficiency was measured by ELISA and shown in FIG. 5.
First, a 96-well plate was coated at a concentration of 0.1 μg/well with anti-CD3 (anti-mouse CD3) and anti-CD28 (anti-mouse CD28) monoclonal antibodies at 37° C. for 5 hours, spleen cells were isolated from 7-week-old C57BL/6, and the isolated spleen cells were suspended to be single cells. The spleen cells suspended through the process were seeded at 2.5×10^5 on each well coated with anti-CD3 (anti-mouse CD3) and anti-28 (anti-mouse CD28) monoclonal antibodies, and were treated with 1 μM PBS, the dNP2-ctCTLA-4 fusion product and the TAT-ctCTLA-4 fusion product, and then activated for 24 hours.
The spleen cells activated by the anti-CD3 and anti-CD28 antibodies were each treated with the dNP2-ctCTLA-4 fusion product and the dNP2-EGFP fusion product, and IL-2 expression inhibitory efficiency was measured by ELISA and shown in FIG. 6A. At this time, ELISA was conducted using the kit produced by Biolegend Corporation in accordance with the standard protocol provided by the manufacturer. In addition, spleen cells activated by PMA/ionomycin were treated with the dNP2-ctCTLA-4 fusion product and the dNP2-EGFP fusion product, and IL-2 expression inhibitory efficiency was measured by ELISA and is shown in FIG. 6B.
At this time, the activated spleen cells were activated with the anti-CD3/CD28 antibody or PMA/ionomycin in the presence of 1 μM PBS, the dNP2-ctCTLA-4 fusion product or dNP2-EGFP fusion product for 24 hours.
The spleen cells activated by the anti-CD3 and anti-CD28 antibodies were each treated with 0.5, 1, 2 or 5 μM WT, 1YF, 2YF and DYF, and IL-2 expression inhibitory abilities were measured by ELISA and are shown in FIG. 8.
At this time, the activated spleen cells were activated with anti-CD3/CD28 antibody in the presence of 1 μM PBS, 0.5, 1, 2 or 5 μM WT, 1YF, 2YF, DYF for 24 hours.
The spleen cells activated by anti-CD3 and anti-CD28 antibodies were each treated with 0.1, 0.5, 1, 2 or 5 μM dNP2-TAMRA fusion product, dNP2-CTLA-4 fusion product and dNP2-ctCTLA-4-fm3 fusion product, and IL-2 expression inhibitory efficiency was measured by ELISA and is shown in FIG. 11. At this time, the activated spleen cells were activated with the anti-CD3/CD28 antibody in the presence of 1 μM PBS, 0.1, 0.5, 1, 2 or 5 μM dNP2-TAMRA fusion product, dNP2-CTLA-4 fusion product and dNP2-ctCTLA-4-fm3 fusion product for 24 hours.

[2] = tested on: primary mouse CD4-T-cells; experiment: Intracellular transfer efficiency of ctCTLA-4 peptide and CPP-ctCTLA-4 fusion products in mouse spleen cells; format: cell-based; conditions: 1 μM, one hour, anti-HA staining
Protocol: Jurkat T-cells were cultured at a density of 5.0×10^5 cells/well on a 24-well plate in RPMI 1640 medium. After the cells were seeded, respective proteins were added at designated times. After culturing, the cells were collected and washed three times with phosphate buffered saline (PBS). Intracellular fluorescence was analyzed with a fluorescence-activated cell sorting (FACS) Canto II flow cytometer (BD Bioscience) and data were analyzed using FlowJo software (Tree Star, INC.). The spleen isolated from the 6-week-old C57BL/6 mice were loaded on a 60 mm×15 mm cell culture dish containing 3 ml of PBS. A single cell suspension was physically prepared using a cell strainer having pores with a size of […], 10 ml of fresh PBS was added thereto and the resulting mixture was centrifuged. […]
Specifically, the transfer efficiency was measured using “3) In vitro transfer efficiency” in the test method, which will be briefly described below.
Mouse spleen cells were cultured together with 1 μM of a ctCTLA-4 peptide, or a dNP2-ctCTLA-4 or Hph-1-ctCTLA-4 fusion product for one hour, and the ctCTLA-4 peptide or CPP-linked ctCTLA-4 fusion products, which had been transferred into cells, were stained with anti-HA antibodies. […] The cells were harvested and intracellular fluorescence was measured using a flow cytometer to measure ctCTLA-4 protein introduction efficiency in primary mouse CD4-T-cells.

CD4 T-cells = experiment: Inhibition of CD4 T-cell activation (CD25 expression) in mouse spleen cells (FACS); format: cell-based
Protocol: The present test was conducted to check whether or not the dNP2-TAMRA, dNP2-ctCTLA-4 fusion product and dNP2-ctCTLA-4-fm3 fusion product according to the present invention could inhibit activation of CD4 T-cells in the mouse model. At this time, CD25 was an activation marker which has an increasing expression level when T-cells were activated, and whether or not activation of CD4 T-cells was inhibited based on the amount of expressed CD25 was determined. Specifically, the test method was as follows.
A 96-well plate was coated with 0.1 μg of anti-CD3 and anti-CD28 antibodies in a cell incubator at 37° C. under […] for 5 hours. Then, isolated spleen cells of mice were seeded in a density of 2.5×10^5 on each well. The cells were treated with PBS or 0.1, 0.5, 1, 2 or 5 μM dNP2-TAMRA, dNP2-ctCTLA-4 or dNP2-ctCTLA-4-Fm, and then cultured in a cell incubator at 37° C. under […] for 24 hours. Then, the cells were stained with APC fluorescence-conjugated anti-CD4 mAb and PE fluorescence-fused anti-CD25 mAb at 4° C. for 20 minutes. Then, the cells produced through the aforementioned process were analyzed by a flow cytometer (FACS) to compare amounts of expressed CD25.

[3] = 0.1, 0.5, 1, 2 or 5 μM, 24 hours

Substance	IL-2 expression inhibitory efficiency compared to WT ([1]; 24 hours)	IL-2 expression inhibitory effects of ctCTLA-4 fragment peptides [1]	also measured
1YF: ctCTLA-4 variant, Y residue of the 1Y part substituted by F (KMLKKRSPLTTGVFVKMPPTEPECEKQFQPYFIPIN; ctCTLA-4 1YF)	significant deterioration in IL-2 expression inhibitory efficiency		
2YF: ctCTLA-4 variant, Y residue of the 2Y part substituted by F (KMLKKRSPLTTGVYVKMPPTEPECEKQFQPFFIPIN; ctCTLA-4 2YF)	significant deterioration in IL-2 expression inhibitory efficiency		
DYF: ctCTLA-4 variant, Y residues of both 1Y and 2Y parts substituted by F (KMLKKRSPLTTGVFVKMPPTEPECEKQFQPFFIPIN; ctCTLA-4 DYF)	significant deterioration in IL-2 expression inhibitory efficiency		
Hph-1-ctCTLA-4: fusion product of cell-penetrating peptide Hph-1 (Sequence ID No. 9) linked to the N-end of ctCTLA-4 peptide (YARVRRRGPRRKMLKKRSPLTTGVYVKMPPTEPECEKQFQPYFIPIN; Hph-1; ctCTLA-4)			intracellular transfer efficiency [2]: further improved
ctCTLA-4-fm1: peptide fragment having an amino acid sequence represented by Sequence ID No. 2 (YVKMPPTEPE; ctCTLA-4 fm1)		excellent IL-2 expression inhibitory effects	
ctCTLA-4-fm2: peptide fragment having an amino acid sequence represented by Sequence ID No. 3 (YFIPIN; ctCTLA-4 fm2)		excellent IL-2 expression inhibitory effects	
ctCTLA-4-fm3: fusion peptide of Sequence ID No. 4, wherein Sequence ID No. 2 is combined with Sequence ID No. 3 (YVKMPPTEPEYFIPIN; ctCTLA-4 fm3)		excellent IL-2 expression inhibitory effects	
ctCTLA-4: peptide of Sequence ID No. 1, 188th to 213th amino acid of the CTLA-4 protein cytoplasmic domain (KMLKKRSPLTTGVYVKMPPTEPECEKQFQPYFIPIN; ctCTLA-4)			intracellular transfer efficiency [2]: excellent intracellular transfer efficiency
dNP2-ctCTLA-4-fm3: fusion product of fusion peptide ctCTLA-4-fm3 (Sequence ID No. 4) and cell-penetrating peptide dNP2 (Sequence ID No. 8) (KIKKVKKKGRKGSKIKKVKKKGRKYVKMPPTEPEYFIPIN; dNP2; ctCTLA-4 fm3)			IL-2 expression inhibition [1, 3]: excellent inhibitory activity against IL-2 expression, comparable to the dNP2-ctCTLA-4 fusion protein; intracellular transfer efficiency (FIG. 10) (CD4 T-cells; 0.1 μM): excellent intracellular transfer efficiency; CD25 expression in CD4 T-cells (CD4 T-cells; [3]): efficacy similar thereto
